In US12091426B2, “Bifunctional degraders of hematopoietic progenitor kinase and therapeutic uses thereof” (Nurix Therapeutics, Inc., priority 2021, dated 2024) one finds DC50 and Dmax data, which are given here for 12 molecules.

The target of the experiment is T1, HPK1 (Homo sapiens, UniProt Q92918).
T1 construct: A HiBiT tag was introduced by CRISPR on the N terminus of HPK1 in Jurkat cells; host or cells: Jurkat cells (ATCC TIB-152), monoclonal line with CRISPR knock-in of HiBiT at the endogenous HPK1 locus
T1 sequence (Q92918 whole entry): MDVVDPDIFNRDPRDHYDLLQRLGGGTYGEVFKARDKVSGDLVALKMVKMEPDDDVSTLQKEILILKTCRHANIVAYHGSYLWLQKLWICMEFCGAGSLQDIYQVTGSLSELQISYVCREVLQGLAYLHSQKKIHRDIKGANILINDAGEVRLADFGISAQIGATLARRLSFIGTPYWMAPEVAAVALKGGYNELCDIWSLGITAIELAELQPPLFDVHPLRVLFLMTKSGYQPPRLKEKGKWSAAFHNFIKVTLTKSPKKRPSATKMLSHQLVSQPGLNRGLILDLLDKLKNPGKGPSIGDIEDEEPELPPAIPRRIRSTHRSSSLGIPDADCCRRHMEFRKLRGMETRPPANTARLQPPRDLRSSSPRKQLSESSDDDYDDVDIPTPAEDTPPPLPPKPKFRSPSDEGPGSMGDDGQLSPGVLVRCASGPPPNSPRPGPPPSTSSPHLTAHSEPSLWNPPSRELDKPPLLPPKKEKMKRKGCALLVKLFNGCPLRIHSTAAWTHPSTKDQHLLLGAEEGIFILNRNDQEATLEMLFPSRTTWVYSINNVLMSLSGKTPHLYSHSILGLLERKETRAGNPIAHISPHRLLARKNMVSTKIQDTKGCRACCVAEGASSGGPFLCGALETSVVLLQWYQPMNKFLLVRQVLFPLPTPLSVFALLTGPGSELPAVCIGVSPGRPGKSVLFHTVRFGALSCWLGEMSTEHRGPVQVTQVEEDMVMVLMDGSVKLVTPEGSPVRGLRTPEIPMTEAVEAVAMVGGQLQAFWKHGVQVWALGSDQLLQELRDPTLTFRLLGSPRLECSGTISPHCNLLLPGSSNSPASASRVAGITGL
Description: HPK1 Cellular HiBit Degradation Assay. The experiment is classed as cell-based. Particulars: HiBiT HPK1 Jurkat cells, 24 hrs; for DC50: concentration at which 50% of HPK1 was remaining, read-out: DC50 Category; for Dmax: Jurkat, maximum degradation vs DMSO vehicle control, read-out: Dmax Category. In outline: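 HPK1 levels are read by HiBiT luminescence after 24 h exposure of HiBiT-knock-in Jurkat cells to compound at 10 uM–0.1 nM final (11 points). Relative to DMSO (100%), DC50 is the concentration leaving 50% HPK1 from a variable-slope fit, and Dmax is 100 minus minimum remaining. Viability checked in-plate.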

On to `CC(C)n1cnc2cc(-c3ccc4c(c3)N([C@H]3C[C@@H](N5CCC[C@H](F)C5)C3)C(=O)C43CCN(C(=O)C4(C)CCN(C(=O)C5CCN(c6ccc(C7CCC(=O)NC7=O)cn6)CC5)CC4)CC3)nc(NC3CC3)c21` (mixture of isomers) [Example 203, (3RS)-3-(6-{4-[4-({6-[4-(cyclopropylamino)-3-(propan-2-yl)-3H-imidazo[4,5-c]pyridin-6-yl]-2-oxo-1-[(1S,3S)-3-[(3S)-3-fluoropiperidin-1-yl]cyclobutyl]-1,2-dihydrospiro[indole-3,4′-piperidin]-1′-yl}carbonyl)-4-methylpiperidine-1-carbonyl]piperidin-1-yl}pyridin-3-yl)piperidine-2,6-dione], for which the half-maximal degradation concentration (DC50) was less than 100 nM and the maximal degradation (Dmax) fell in the range of 70 to 85%.
In the same order, the values of `CC(C)n1cnc2cc(-c3ccc4c(c3)N([C@H]3C[C@@H](N5CC6CCC(C5)O6)C3)C(=O)C43CCN(C(=O)C4(C)CCN(C(=O)C5CCN(c6ccc(C7CCC(=O)NC7=O)cn6)CC5)CC4)CC3)nc(NC3CC3)c21` (mixture of isomers) [Example 204, (3RS)-3-(6-{4-[4-({6-[4-(cyclopropylamino)-3-(propan-2-yl)-3H-imidazo[4,5-c]pyridin-6-yl]-2-oxo-1-[(1S,3S)-3-{8-oxa-3-Azabicyclo[3.2.1]octan-3-yl}cyclobutyl]-1,2-dihydrospiro[indole-3,4′-piperidin]-1′-yl}carbonyl)-4-methylpiperidine-1-carbonyl]piperidin-1-yl}pyridin-3-yl)piperidine-2,6-dione] are 100 to 500 nM and 70 to 85%.
On the same counts, the results for `CC(C)n1cnc2cc(-c3ccc4c(c3)N([C@H]3C[C@@H](N5CCC[C@@H](F)C5)C3)C(=O)C43CCN(C(=O)C4(C)CCN(C(=O)CC5CCN(c6ccc(C7CCC(=O)NC7=O)cn6)CC5)CC4)CC3)nc(NC3CC3)c21` (mixture of isomers) [Example 205, (3RS)-3-[6-(4-{2-[4-({6-[4-(cyclopropylamino)-3-(propan-2-yl)-3H-imidazo[4,5-c]pyridin-6-yl]-2-oxo-1-[(1S,3S)-3-[(3R)-3-fluoropiperidin-1-yl]cyclobutyl]-1,2-dihydrospiro[indole-3,4′-piperidin]-1′-yl}carbonyl)-4-methylpiperidin-1-yl]-2-oxoethyl}piperidin-1-yl)pyridin-3-yl]piperidine-2,6-dione] are 100 to 500 nM and 50 to 70%.
In the same order, the values of `CC(C)n1cnc2cc(-c3ccc4c(c3)N([C@H]3C[C@@H](N5CCC[C@H](F)C5)C3)C(=O)C43CCN(C(=O)C4(C)CCN(C(=O)CC5CCN(c6ccc(C7CCC(=O)NC7=O)cn6)CC5)CC4)CC3)nc(NC3CC3)c21` (mixture of isomers) [Example 206, (3RS)-3-[6-(4-{2-[4-({6-[4-(cyclopropylamino)-3-(propan-2-yl)-3H-imidazo[4,5-c]pyridin-6-yl]-2-oxo-1-[(1S,3S)-3-[(3S)-3-fluoropiperidin-1-yl]cyclobutyl]-1,2-dihydrospiro[indole-3,4′-piperidin]-1′-yl}carbonyl)-4-methylpiperidin-1-yl]-2-oxoethyl}piperidin-1-yl)pyridin-3-yl]piperidine-2,6-dione] are 100 to 500 nM and 50 to 70%.
As to `CC(C)n1cnc2cc(-c3ccc4c(c3)N([C@H]3C[C@@H](N5CC6CCC(C5)O6)C3)C(=O)C43CCN(C(=O)C4(C)CCN(C(=O)CC5CCN(c6ccc(C7CCC(=O)NC7=O)cn6)CC5)CC4)CC3)nc(NC3CC3)c21` (mixture of isomers) [Example 207, (3RS)-3-[6-(4-{2-[4-({6-[4-(cyclopropylamino)-3-(propan-2-yl)-3H-imidazo[4,5-c]pyridin-6-yl]-2-oxo-1-[(1S,3S)-3-{8-oxa-3-Azabicyclo[3.2.1]octan-3-yl}cyclobutyl]-1,2-dihydrospiro[indole-3,4′-piperidin]-1′-yl}carbonyl)-4-methylpiperidin-1-yl]-2-oxoethyl}piperidin-1-yl)pyridin-3-yl]piperidine-2,6-dione], the DC50 lay in the range of 500 to 1000 nM and the Dmax lay in the range of 50 to 70%.
For `CC(C)n1cnc2cc(-c3ccc4c(c3)N([C@H]3C[C@@H](N5CCC(F)CC5)C3)C(=O)C43CCN(C(=O)C4(C)CCN(C(=O)C5CCN(c6ccc(C7CCC(=O)NC7=O)cn6)CC5)CC4)CC3)nc(NC3CC3)c21` (mixture of isomers) [Example 208, (3RS)-3-(6-{4-[4-({6-[4-(cyclopropylamino)-3-(propan-2-yl)-3H-imidazo[4,5-c]pyridin-6-yl]-2-oxo-1-[(1S,3S)-3-(4-fluoropiperidin-1-yl)cyclobutyl]-1,2-dihydrospiro[indole-3,4′-piperidin]-1′-yl}carbonyl)-4-methylpiperidine-1-carbonyl]piperidin-1-yl}pyridin-3-yl)piperidine-2,6-dione], the 50% degradation concentration (DC50) fell in the range of 100 to 500 nM and the Dmax is 50 to 70%.
On the same counts, the results for `CC(C)n1cnc2cc(-c3ccc4c(c3)N([C@H]3C[C@@H](N5CCCCC5)C3)C(=O)C43CCN(C(=O)C4(C)CCN(C(=O)C5CCN(c6ccc(C7CCC(=O)NC7=O)nn6)CC5)CC4)CC3)nc(NC3CC3)c21` (mixture of isomers) [Example 209, (3RS)-3-(6-{4-[4-({6-[4-(cyclopropylamino)-3-(propan-2-yl)-3H-imidazo[4,5-c]pyridin-6-yl]-2-oxo-1-[(1S,3S)-3-(piperidin-1-yl)cyclobutyl]-1,2-dihydrospiro[indole-3,4′-piperidin]-1′-yl}carbonyl)-4-methylpiperidine-1-carbonyl]piperidin-1-yl}pyridazin-3-yl)piperidine-2,6-dione] are less than 100 nM and 70 to 85%.
On the same counts, the results for `CC(C)n1cnc2cc(-c3ccc4c(c3)N([C@H]3C[C@@H](N5CCCCC5)C3)C(=O)C43CCN(C(=O)C4(C)CCN(C(=O)C5CCN(c6ccc(C7CCC(=O)NC7=O)c(F)c6)CC5)CC4)CC3)nc(NC3CC3)c21` (mixture of isomers) [Example 210, (3RS)-3-(4-{4-[4-({6-[4-(cyclopropylamino)-3-(propan-2-yl)-3H-imidazo[4,5-c]pyridin-6-yl]-2-oxo-1-[(1S,3S)-3-(piperidin-1-yl)cyclobutyl]-1,2-dihydrospiro[indole-3,4′-piperidin]-1′-yl}carbonyl)-4-methylpiperidine-1-carbonyl]piperidin-1-yl}-2-Fluorophenyl)piperidine-2,6-dione] are less than 100 nM and 70 to 85%.
On the same counts, the results for `CC(C)n1cnc2cc(-c3ccc4c(c3)N([C@H]3C[C@@H](N5CCCCC5)C3)C(=O)C43CCN(C(=O)C4(C)CCN(C(=O)C5CCN(c6ccc(C7CCC(=O)NC7=O)cn6)CC5)CC4)CC3)nc(NC3CCOCC3)c21` (mixture of isomers) [Example 214, (3RS)-3-[6-(4-{4-methyl-4-[(6-{4-[(oxan-4-yl)amino]-3-(propan-2-yl)-3H-imidazo[4,5-c]pyridin-6-yl}-2-oxo-1-[(1S,3S)-3-(piperidin-1-yl)cyclobutyl]-1,2-dihydrospiro[indole-3,4′-piperidin]-1′-yl)carbonyl]piperidine-1-carbonyl}piperidin-1-yl)pyridin-3-yl]piperidine-2,6-dione] are less than 100 nM and 70 to 85%.
As for `CC(C)n1cnc2cc(-c3ccc4c(c3)N([C@H]3C[C@@H](N5C6CCC5COC6)C3)C(=O)C43CCN(C(=O)C4(C)CCN(C(=O)C5CCN(c6ccc(C7CCC(=O)NC7=O)cn6)CC5)CC4)CC3)nc(NC3CC3)c21` (mixture of isomers) [Example 215, (3RS)-3-(6-{4-[4-({6-[4-(cyclopropylamino)-3-(propan-2-yl)-3H-imidazo[4,5-c]pyridin-6-yl]-2-oxo-1-[(1S,3S)-3-{3-oxa-8-azabicyclo[3.2.1]octan-8-yl}cyclobutyl]-1,2-dihydrospiro[indole-3,4′-piperidin]-1′-yl}carbonyl)-4-methylpiperidine-1-carbonyl]piperidin-1-yl}pyridin-3-yl)piperidine-2,6-dione], the half-maximal degradation concentration (DC50) is less than 100 nM and the maximal degradation (Dmax) is 70 to 85%.
On the same counts, the results for `CC(C)n1cnc2cc(-c3ccc4c(c3)N([C@H]3C[C@@H](N5CCOCC5)C3)C(=O)C43CCN(C(=O)C4(C)CCN(C(=O)C5CCN(c6ccc(C7CCC(=O)NC7=O)cn6)CC5)CC4)CC3)nc(NC3CC3)c21` (mixture of isomers) [Example 216, (3RS)-3-(6-{4-[4-({6-[4-(cyclopropylamino)-3-(propan-2-yl)-3H-imidazo[4,5-c]pyridin-6-yl]-2-oxo-1-[(1S,3S)-3-(MORPHOLIN-4-yl)cyclobutyl]-1,2-dihydrospiro[indole-3,4′-piperidin]-1′-yl}carbonyl)-4-methylpiperidine-1-carbonyl]piperidin-1-yl}pyridin-3-yl)piperidine-2,6-dione] are 100 to 500 nM and 50 to 70%.
On to `CC(C)n1cnc2cc(-c3ccc4c(c3)N([C@H]3C[C@@H](N5CC6CCC(C6)C5)C3)C(=O)C43CCN(C(=O)C4(C)CCN(C(=O)C5CCN(c6ccc(C7CCC(=O)NC7=O)cn6)CC5)CC4)CC3)nc(NC3CC3)c21` (mixture of isomers) [Example 217, (3RS)-3-(6-{4-[4-({6-[4-(cyclopropylamino)-3-(propan-2-yl)-3H-imidazo[4,5-c]pyridin-6-yl]-2-oxo-1-[(1S,3S)-3-{3-Azabicyclo[3.2.1]octan-3-yl}cyclobutyl]-1,2-dihydrospiro[indole-3,4′-piperidin]-1′-yl}carbonyl)-4-methylpiperidine-1-carbonyl]piperidin-1-yl}pyridin-3-yl)piperidine-2,6-dione], for which the DC50 is less than 100 nM and the greatest degradation seen (Dmax) was more than 85%.

A word on the DC50: it is the concentration giving 50% degradation. In general, Dmax refers to the largest share of the target that was removed.
